Test results published in patent US11969417B2, “Topical formulation for use in alopecia” (TOMORROWLABS GMBH, priority 2019, dated 2024).
Entries after “also recorded” stand apart in the source; their conditions may differ.

System: dermal papilla cell (DP)
Assay: 3D spheroid (hanging drop) culture model of dermal papilla cells
Format: cell-based
Details: 3D spheroid culture
Protocol: FIG. 1: 3D hanging drop culture of DPCs. […] After spheroid formation is complete, the samples are transferred into a 96 well plate for further cultivation and drug exposure. […] (A) Representative images of spheroids stained for newly synthesized cells were taken after drug exposure for 12 hours (left column) and 24 hours (right column) respectively. Scale bars: 200 μm.

Compound: Cc1c(O)c(=O)ccn1C [Deferiprone, 3-hydroxy-1,2-dimethylpyridin-4(1H)-one]
- DP cell migration (radius of migration around the spheroids) (after 24 hours): without impeding; also recorded: unchanged
- DP cell proliferation (synthesis of new daughter cells) (drug exposure for 12 hours and 24 hours): significantly increases; also recorded: significantly enhanced
